{
  "source": "patent US9446039B2",
  "about": "“Aminoheteroaryl compounds as MTH1 inhibitors” (CEMM—FORSCHUNGSZENTRUM FÜR MOLEKULARE MEDIZIN GMBH, priority 2012, dated 2016)",
  "type_in_all_cases": "binding",
  "key": {"[1]": {"target": "SW480 colon carcinoma cells lysate proteins (Homo sapiens, UniProt P14625)", "sequence (P14625 22-803)": "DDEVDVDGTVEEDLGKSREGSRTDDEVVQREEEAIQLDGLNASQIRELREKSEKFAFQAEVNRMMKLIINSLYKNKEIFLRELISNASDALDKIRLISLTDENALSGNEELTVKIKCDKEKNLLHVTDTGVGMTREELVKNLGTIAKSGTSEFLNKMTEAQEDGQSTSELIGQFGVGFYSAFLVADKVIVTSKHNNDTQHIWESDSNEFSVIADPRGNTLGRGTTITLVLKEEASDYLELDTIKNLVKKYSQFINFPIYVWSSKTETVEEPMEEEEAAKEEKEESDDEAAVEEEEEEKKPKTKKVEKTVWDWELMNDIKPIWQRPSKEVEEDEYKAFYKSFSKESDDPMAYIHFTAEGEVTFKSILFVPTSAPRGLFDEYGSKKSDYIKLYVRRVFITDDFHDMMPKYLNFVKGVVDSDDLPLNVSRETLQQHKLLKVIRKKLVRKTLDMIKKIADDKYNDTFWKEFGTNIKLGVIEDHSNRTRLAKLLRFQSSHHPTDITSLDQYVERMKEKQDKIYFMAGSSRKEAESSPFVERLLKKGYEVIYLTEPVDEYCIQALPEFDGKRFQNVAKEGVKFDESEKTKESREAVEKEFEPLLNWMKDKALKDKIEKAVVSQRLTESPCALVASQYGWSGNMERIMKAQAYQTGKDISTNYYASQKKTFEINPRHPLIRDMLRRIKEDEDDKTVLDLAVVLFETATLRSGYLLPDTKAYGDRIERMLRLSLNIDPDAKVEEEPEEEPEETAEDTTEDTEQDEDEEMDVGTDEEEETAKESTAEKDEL", "details": "PreyGene HSP90B1"}, "[2]": {"target": "SW480 colon carcinoma cells lysate proteins (Homo sapiens, UniProt Q7Z406)", "sequence (Q7Z406 whole entry)": "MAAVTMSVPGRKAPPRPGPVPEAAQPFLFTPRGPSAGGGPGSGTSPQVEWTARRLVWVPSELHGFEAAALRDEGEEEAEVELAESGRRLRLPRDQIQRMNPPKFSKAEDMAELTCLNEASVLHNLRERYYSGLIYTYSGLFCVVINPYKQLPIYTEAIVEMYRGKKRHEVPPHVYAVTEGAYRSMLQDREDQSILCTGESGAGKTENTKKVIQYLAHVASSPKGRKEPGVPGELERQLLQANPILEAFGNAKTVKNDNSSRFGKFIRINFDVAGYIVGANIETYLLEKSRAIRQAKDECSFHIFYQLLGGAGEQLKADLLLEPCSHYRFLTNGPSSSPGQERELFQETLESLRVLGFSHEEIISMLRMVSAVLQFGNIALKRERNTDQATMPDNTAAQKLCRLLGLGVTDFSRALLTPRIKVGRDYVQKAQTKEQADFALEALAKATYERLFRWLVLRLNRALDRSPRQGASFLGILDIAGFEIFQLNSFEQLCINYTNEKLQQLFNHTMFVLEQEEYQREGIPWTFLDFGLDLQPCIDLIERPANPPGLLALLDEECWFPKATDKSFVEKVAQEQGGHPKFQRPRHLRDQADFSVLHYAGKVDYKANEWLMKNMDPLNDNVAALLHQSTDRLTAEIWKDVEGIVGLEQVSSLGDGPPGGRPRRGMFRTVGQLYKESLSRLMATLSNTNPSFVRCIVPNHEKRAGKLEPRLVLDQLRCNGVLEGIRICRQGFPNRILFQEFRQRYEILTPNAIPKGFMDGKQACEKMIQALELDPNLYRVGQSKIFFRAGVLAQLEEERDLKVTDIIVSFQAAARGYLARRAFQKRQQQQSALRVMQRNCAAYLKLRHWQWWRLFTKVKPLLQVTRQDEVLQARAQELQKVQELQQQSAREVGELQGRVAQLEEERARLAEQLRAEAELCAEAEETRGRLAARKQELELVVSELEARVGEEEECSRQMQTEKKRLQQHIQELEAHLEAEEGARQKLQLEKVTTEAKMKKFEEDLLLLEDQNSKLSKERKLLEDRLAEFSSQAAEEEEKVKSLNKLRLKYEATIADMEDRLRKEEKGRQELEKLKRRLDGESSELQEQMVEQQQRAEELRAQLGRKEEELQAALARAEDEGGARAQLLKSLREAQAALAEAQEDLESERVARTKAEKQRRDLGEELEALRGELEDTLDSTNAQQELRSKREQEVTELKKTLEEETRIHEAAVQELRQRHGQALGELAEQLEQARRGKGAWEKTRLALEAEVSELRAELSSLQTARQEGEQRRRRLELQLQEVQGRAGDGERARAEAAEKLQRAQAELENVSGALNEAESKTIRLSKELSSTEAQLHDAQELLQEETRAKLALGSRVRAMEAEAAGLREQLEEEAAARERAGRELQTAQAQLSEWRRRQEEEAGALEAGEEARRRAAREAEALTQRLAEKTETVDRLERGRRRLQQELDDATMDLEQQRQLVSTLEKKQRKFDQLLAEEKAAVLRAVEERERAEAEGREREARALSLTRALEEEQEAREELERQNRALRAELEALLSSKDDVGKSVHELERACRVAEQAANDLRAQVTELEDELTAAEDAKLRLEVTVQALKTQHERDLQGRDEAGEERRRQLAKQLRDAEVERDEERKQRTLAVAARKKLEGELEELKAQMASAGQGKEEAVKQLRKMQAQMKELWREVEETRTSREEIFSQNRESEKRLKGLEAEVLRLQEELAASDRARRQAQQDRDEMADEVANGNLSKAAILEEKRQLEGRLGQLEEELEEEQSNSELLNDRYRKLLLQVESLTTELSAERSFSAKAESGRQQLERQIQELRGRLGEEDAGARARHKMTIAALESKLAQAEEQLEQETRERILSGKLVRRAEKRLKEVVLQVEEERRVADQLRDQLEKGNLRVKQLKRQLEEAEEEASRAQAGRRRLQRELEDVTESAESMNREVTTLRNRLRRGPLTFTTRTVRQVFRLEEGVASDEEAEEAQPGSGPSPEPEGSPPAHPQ", "details": "PreyGene MYH14; SW480 cells"}, "[3]": {"target": "SW480 colon carcinoma cells lysate proteins (Homo sapiens, UniProt P62861)", "details": "PreyGene FAU"}, "[4]": {"target": "SW480 colon carcinoma cells lysate proteins (Homo sapiens, UniProt P15559)", "sequence (P15559 whole entry)": "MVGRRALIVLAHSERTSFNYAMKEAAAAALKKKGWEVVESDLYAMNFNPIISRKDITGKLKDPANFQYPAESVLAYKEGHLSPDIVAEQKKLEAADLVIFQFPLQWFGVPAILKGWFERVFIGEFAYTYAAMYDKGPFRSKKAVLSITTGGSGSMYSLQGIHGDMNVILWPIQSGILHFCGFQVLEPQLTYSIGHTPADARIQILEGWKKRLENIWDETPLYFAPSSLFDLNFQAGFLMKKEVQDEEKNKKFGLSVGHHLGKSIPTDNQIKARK", "details": "PreyGene NQO1"}, "[5]": {"target": "T1, SW480 colon carcinoma cells lysate proteins (Homo sapiens, UniProt P50395)", "T1 sequence (P50395 1-445)": "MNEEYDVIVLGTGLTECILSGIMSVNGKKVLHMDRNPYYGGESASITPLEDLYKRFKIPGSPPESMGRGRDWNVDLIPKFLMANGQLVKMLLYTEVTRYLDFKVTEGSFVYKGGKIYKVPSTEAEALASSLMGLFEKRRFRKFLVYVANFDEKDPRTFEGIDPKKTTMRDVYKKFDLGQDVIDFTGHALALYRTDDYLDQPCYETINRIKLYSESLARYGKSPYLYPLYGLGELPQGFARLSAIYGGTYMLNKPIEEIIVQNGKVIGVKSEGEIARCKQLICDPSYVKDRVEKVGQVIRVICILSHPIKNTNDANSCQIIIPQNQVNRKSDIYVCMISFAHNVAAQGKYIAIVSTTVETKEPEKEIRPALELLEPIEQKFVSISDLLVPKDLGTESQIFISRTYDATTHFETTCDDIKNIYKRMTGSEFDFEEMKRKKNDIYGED", "details": "PreyGene GDI2"}, "[6]": {"target": "SW480 colon carcinoma cells lysate proteins (Homo sapiens, UniProt Q13885)", "sequence (Q13885 whole entry)": "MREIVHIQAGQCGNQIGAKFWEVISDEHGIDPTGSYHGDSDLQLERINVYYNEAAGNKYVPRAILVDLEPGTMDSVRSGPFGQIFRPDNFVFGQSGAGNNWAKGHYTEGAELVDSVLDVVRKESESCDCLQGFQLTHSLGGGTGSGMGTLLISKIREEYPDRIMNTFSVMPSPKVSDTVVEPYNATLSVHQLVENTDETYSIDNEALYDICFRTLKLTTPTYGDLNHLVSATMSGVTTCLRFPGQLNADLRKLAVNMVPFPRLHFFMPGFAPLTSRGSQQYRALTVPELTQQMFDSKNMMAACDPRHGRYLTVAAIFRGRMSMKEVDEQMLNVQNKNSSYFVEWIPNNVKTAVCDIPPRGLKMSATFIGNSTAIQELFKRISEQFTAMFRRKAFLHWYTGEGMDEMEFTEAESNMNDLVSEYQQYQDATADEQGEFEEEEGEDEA", "details": "PreyGene TUBB2A; SW480 cells"}, "[7]": {"target": "T2, SW480 colon carcinoma cells lysate proteins (Homo sapiens, UniProt P61916)", "T2 sequence (P61916 20-151)": "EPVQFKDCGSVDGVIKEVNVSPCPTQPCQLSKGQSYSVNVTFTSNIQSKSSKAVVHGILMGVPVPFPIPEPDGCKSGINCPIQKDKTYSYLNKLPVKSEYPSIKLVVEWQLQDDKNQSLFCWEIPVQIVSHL", "details": "PreyGene NPC2"}, "[8]": {"target": "T3, SW480 colon carcinoma cells lysate proteins (Homo sapiens, UniProt P10599)", "T3 sequence (P10599 1-105)": "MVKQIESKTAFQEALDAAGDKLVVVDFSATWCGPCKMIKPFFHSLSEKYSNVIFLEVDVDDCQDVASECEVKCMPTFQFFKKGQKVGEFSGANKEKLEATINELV", "details": "PreyGene TXN"}, "[9]": {"target": "T4, SW480 colon carcinoma cells lysate proteins (Homo sapiens, UniProt P52209)", "T4 sequence (P52209 1-483)": "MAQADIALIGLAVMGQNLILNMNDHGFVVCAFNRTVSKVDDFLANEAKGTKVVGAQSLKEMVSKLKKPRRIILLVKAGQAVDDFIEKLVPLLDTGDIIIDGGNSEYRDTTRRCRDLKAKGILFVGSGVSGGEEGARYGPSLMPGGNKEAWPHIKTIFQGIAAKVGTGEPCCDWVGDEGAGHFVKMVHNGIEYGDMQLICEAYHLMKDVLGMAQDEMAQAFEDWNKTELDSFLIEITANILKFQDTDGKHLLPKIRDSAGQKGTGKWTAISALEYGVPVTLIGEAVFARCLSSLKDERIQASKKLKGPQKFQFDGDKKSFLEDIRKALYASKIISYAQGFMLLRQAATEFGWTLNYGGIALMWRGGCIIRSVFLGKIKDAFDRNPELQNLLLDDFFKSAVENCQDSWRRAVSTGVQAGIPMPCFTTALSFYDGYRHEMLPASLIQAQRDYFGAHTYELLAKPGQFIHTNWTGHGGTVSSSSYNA", "details": "PreyGene PGD"}},
  "data": [
    {"smiles": "C[C@H](Oc1cc(-c2cnn(C3CCNCC3)c2)cnc1N)c1c(Cl)ccc(F)c1Cl", "note": "[(5)-crizotinib]", "values": [
      {"measurement": "AvgP", "setting": "[1]", "value": 0.228},
      {"measurement": "SC.Exp. 1-1", "setting": "[1]", "value": 13},
      {"measurement": "SC.Exp. 1-2", "setting": "[1]", "value": 8},
      {"measurement": "SC.Exp. 2-1", "setting": "[1]", "value": 0},
      {"measurement": "SC.Exp. 2-2", "setting": "[1]", "value": 0},
      {"measurement": "Sum (SC.Exp.)", "setting": "[1]", "value": 21},
      {"measurement": "AvgP", "setting": "[2]", "value": 0},
      {"measurement": "SC.Exp. 1-1", "setting": "[2]", "value": 1},
      {"measurement": "SC.Exp. 1-2", "setting": "[2]", "value": 1},
      {"measurement": "SC.Exp. 2-1", "setting": "[2]", "value": 0},
      {"measurement": "SC.Exp. 2-2", "setting": "[2]", "value": 0},
      {"measurement": "SC.Exp. Sum", "setting": "[2]", "value": 2},
      {"measurement": "AvgP", "setting": "[3]", "value": 0.2109},
      {"measurement": "SC.Exp. 1-1", "setting": "[3]", "value": 2},
      {"measurement": "SC.Exp. 1-2", "setting": "[3]", "value": 4},
      {"measurement": "SC.Exp. 2-1", "setting": "[3]", "value": 0},
      {"measurement": "SC.Exp. 2-2", "setting": "[3]", "value": 2},
      {"measurement": "Sum (SC.Exp.)", "setting": "[3]", "value": 8},
      {"measurement": "AvgP", "setting": "[4]", "value": 0.3104},
      {"measurement": "SC.Exp. 1-1", "setting": "[4]", "value": 2},
      {"measurement": "SC.Exp. 1-2", "setting": "[4]", "value": 1},
      {"measurement": "SC.Exp. 2-1", "setting": "[4]", "value": 0},
      {"measurement": "SC.Exp. 2-2", "setting": "[4]", "value": 0},
      {"measurement": "Sum (SC.Exp.)", "setting": "[4]", "value": 3},
      {"measurement": "AvgP", "setting": "[5]", "value": 0.1854},
      {"measurement": "SC.Exp. 1-1", "setting": "[5]", "value": 4},
      {"measurement": "SC.Exp. 1-2", "setting": "[5]", "value": 0},
      {"measurement": "SC.Exp. 2-1", "setting": "[5]", "value": 0},
      {"measurement": "SC.Exp. 2-2", "setting": "[5]", "value": 0},
      {"measurement": "Sum (SC.Exp.)", "setting": "[5]", "value": 4},
      {"measurement": "AvgP", "setting": "[6]", "value": 0},
      {"measurement": "SC.Exp. 1-1", "setting": "[6]", "value": 5},
      {"measurement": "SC.Exp. 1-2", "setting": "[6]", "value": 4},
      {"measurement": "SC.Exp. 2-1", "setting": "[6]", "value": 2},
      {"measurement": "SC.Exp. 2-2", "setting": "[6]", "value": 2},
      {"measurement": "SC.Exp. Sum", "setting": "[6]", "value": 13},
      {"measurement": "AvgP", "setting": "[7]", "value": 0.3813},
      {"measurement": "SC.Exp. 1-1", "setting": "[7]", "value": 2},
      {"measurement": "SC.Exp. 1-2", "setting": "[7]", "value": 2},
      {"measurement": "SC.Exp. 2-1", "setting": "[7]", "value": 0},
      {"measurement": "SC.Exp. 2-2", "setting": "[7]", "value": 0},
      {"measurement": "Sum (SC.Exp.)", "setting": "[7]", "value": 4},
      {"measurement": "AvgP", "setting": "[8]", "value": 0.4587},
      {"measurement": "SC.Exp. 1-1", "setting": "[8]", "value": 4},
      {"measurement": "SC.Exp. 1-2", "setting": "[8]", "value": 5},
      {"measurement": "SC.Exp. 2-1", "setting": "[8]", "value": 2},
      {"measurement": "SC.Exp. 2-2", "setting": "[8]", "value": 1},
      {"measurement": "Sum (SC.Exp.)", "setting": "[8]", "value": 12},
      {"measurement": "AvgP", "setting": "[9]", "value": 0.3262},
      {"measurement": "SC.Exp. 1-1", "setting": "[9]", "value": 4},
      {"measurement": "SC.Exp. 1-2", "setting": "[9]", "value": 2},
      {"measurement": "SC.Exp. 2-1", "setting": "[9]", "value": 0},
      {"measurement": "SC.Exp. 2-2", "setting": "[9]", "value": 0},
      {"measurement": "Sum (SC.Exp.)", "setting": "[9]", "value": 6}
    ]}
  ]
}
